What all share (format): cell-based
In experiment [1] the test system is Ba/F3 cells expressing L858R/T790M/C797S (EGFR-LTC). As to the kind of experiment: Growth inhibition (GI50) of Ba/F3 cells expressing L858R/T790M/C797S (EGFR-LTC), Celltiter glo. Particulars: Mus musculus, BaF3, 72 h. The method, then: (§1) In this experimental example, a determination was made as to whether the compounds prepared in Examples 1-283 have the ability to inhibit the growth of Ba/F3 cells expressing EGFR-wt, del19/T790M/C797S (EGFR-DTC), L858R/T790M/C797S (EGFR-LTC), del19/T790M (EGFR-DT), and L858R/T790M (EGFR-LT) variants.
(§2) The parental Ba/F3 cell line is a population of cells that are not introduced with EGFR variants. Specifically, 100 μl of a cell line expressing each variant was plated in a 96-well plate at a density of 100,000 cells/ml. 10-point, 4-fold serial dilutions of each compound were prepared, starting at 2 mM. After 4 h, 0.5 μl of the compound (0.5% DMSO) was added, followed by incubation at 37° C. and 5% CO2 for 72 h. After incubation, the number of viable cells was measured using a Celltiter glo assay kit (Promega) and the GI50 of the compound was determined. The term “GI50” refers to the molar concentration (μM) of the compound required for 50% growth inhibition of cells.

For experiment [2], the system named is Ba/F3 cells expressing EGFR-wt. As to the kind of experiment: Growth inhibition (GI50) of Ba/F3 cells expressing EGFR-wt, Celltiter glo. The conditions noted are these: Mus musculus, BaF3, 72 h. On the procedure:
as §1, §2
For orientation: ATP-based viability assays read luminescence as a measure of living cells.

Experiment [3] has as its system parental Ba/F3 cell line. The experiment in a line: Growth inhibition (GI50) of the parental Ba/F3 cell line (not introduced with EGFR variants), Celltiter glo. The conditions noted are these: Mus musculus, BaF3, 72 h, parental Ba/F3 cells. The method, then: as §2
The test system of experiment [4] is Ba/F3 cells expressing del19/T790M/C797S (EGFR-DTC). As to the kind of experiment: Growth inhibition (GI50) of Ba/F3 cells expressing del19/T790M/C797S (EGFR-DTC), Celltiter glo. The conditions noted are these: Mus musculus, BaF3, 72 h. On the procedure:
as §1, §2

The structures appear in SMILES notation.

By GI50 is commonly meant the concentration at which growth is held to half of that of the control.

Take `COc1cc(N2CCC(N3CCN(C)CC3)CC2)c(Cl)cc1Nc1ncc(Cl)c(Nc2ccccc2NS(C)(=O)=O)n1` [Example 7, N-(2-((5-chloro-2-((5-chloro-2-methoxy-4-(4-(4-methylpiperazin-1-yl)piperidin-1-yl)phenyl)amino)pyrimidin-4-yl)amino)phenyl)methanesulfonamide]: the GI50 in experiment [1] fell in the range of 100 to 500 nM; in experiment [2], 100 to 500 nM; in experiment [3], 500 to 2000 nM; in experiment [4], 100 to 500 nM.

In the case of `COc1nc(N2CCC(N(C)C)C2)ccc1NC1=[N+]=C(N(c2ccccc2NS(C)(=O)=O)S(C)(=O)=O)C(Cl)=CN1` (centres unmarked) [Example 8, N-(5-chloro-2-((6-(3-(dimethylamino)pyrrolidin-1-yl)-2-methoxypyridin-3-yl)amino)pyrimidin-4-yl)-N-(2-(methylsulfonamido)phenyl)methanesulfonamide], the GI50 in experiment [1] lay within 500 to 2000 nM; in experiment [2] it was 2000 to 10000 nM; in experiment [3], 2000 to 10000 nM; in experiment [4], 100 to 500 nM.

On to `COc1cc(N2CCC(N3CCN(C)CC3)CC2)c(C)cc1Nc1ncc(Cl)c(N(c2ccccc2NS(C)(=O)=O)S(C)(=O)=O)n1` [Example 9, N-(5-chloro-2-((2-methoxy-5-methyl-4-(4-(4-methylpiperazin-1-yl)piperidin-1-yl)phenyl)amino)pyrimidin-4-yl)-N-(2-(methylsulfonamido)phenyl)methanesulfonamide], for which the GI50 in experiment [1] is 25 to 100 nM; in experiment [2], 100 to 500 nM; in experiment [3], 500 to 2000 nM; in experiment [4], 100 to 500 nM.

`COc1nc(N2CCC(N3CCN(C)CC3)CC2)ccc1Nc1ncc(Cl)c(N(c2ccccc2NS(C)(=O)=O)S(C)(=O)=O)n1` [Example 10, N-(5-chloro-2-((2-methoxy-6-(4-(4-methylpiperazin-1-yl)piperidin-1-yl)pyridin-3-yl)amino)pyrimidin-4-yl)-N-(2-(methylsulfonamido)phenyl)methanesulfonamide]: the GI50 in experiment [1] lay within 500 to 2000 nM; in experiment [2] it was 500 to 2000 nM; in experiment [3] it was 2000 to 10000 nM; in experiment [4], 500 to 2000 nM.

With `COc1cc(N2CCC(N3CCN(C)CC3)CC2)c(C)cc1Nc1ncc(Cl)c(N(C)c2ccccc2N(C)S(C)(=O)=O)n1` [Example 11], the GI50 lay within 500 to 2000 nM in experiment [1], 2000 to 10000 nM in experiment [2], 500 to 2000 nM in experiment [3] and 500 to 2000 nM in experiment [4].

Consider `CN1CCN(C2CCN(c3ncc(Nc4ncc(Br)c(Nc5ccc(F)cc5NS(C)(=O)=O)n4)cc3F)CC2)CC1` [Example 25, N-(2-((5-bromo-2-((5-fluoro-6-(4-(4-methylpiperazin-1-yl)piperidin-1-yl)pyridin-3-yl)amino)pyrimidin-4-yl)amino)-5-fluorophenyl)methanesulfonamide], for which the GI50 in experiment [1] is 100 to 500 nM; in experiment [2], 500 to 2000 nM; in experiment [3], 500 to 2000 nM; in experiment [4], 100 to 500 nM.

In the case of `COc1cc(N2CCC(N3CCN(C)CC3)CC2)c(Cl)cc1Nc1ncc(Br)c(Nc2ccc(F)cc2NS(C)(=O)=O)n1` [Example 26, N-(2-((5-bromo-2-((5-chloro-2-methoxy-4-(4-(4-methylpiperazin-1-yl)piperidin-1-yl)phenyl)amino)pyrimidin-4-yl)amino)-5-fluorophenyl)methanesulfonamide], the GI50 is 25 to 100 nM in experiment [1], 100 to 500 nM in experiment [2], 2000 to 10000 nM in experiment [3] and 25 to 100 nM in experiment [4].

`CN1CCN(C2CCN(c3ccc(Nc4ncc(Br)c(Nc5ccc(F)cc5NS(C)(=O)=O)n4)c(Cl)c3)CC2)CC1` [Example 27, N-(2-((5-bromo-2-((2-chloro-4-(4-(4-methylpiperazin-1-yl)piperidin-1-yl)phenyl)amino)pyrimidin-4-yl)amino)-5-fluorophenyl)methanesulfonamide]: the GI50 in experiment [1] fell in the range of 500 to 2000 nM; in experiment [2], 2000 to 10000 nM; in experiment [3], 2000 to 10000 nM; in experiment [4] it was 100 to 500 nM.

With `COc1nc(N2CCC(N3CCN(C)CC3)CC2)ccc1Nc1ncc(Br)c(Nc2ccc(F)cc2NS(C)(=O)=O)n1` [Example 28, N-(2-((5-bromo-2-((2-methoxy-6-(4-(4-methylpiperazin-1-yl)piperidin-1-yl)pyridin-3-yl)amino)pyrimidin-4-yl)amino)-5-fluorophenyl)methanesulfonamide], the GI50 is 500 to 2000 nM in experiment [1], 2000 to 10000 nM in experiment [2], 2000 to 10000 nM in experiment [3] and 500 to 2000 nM in experiment [4].

As to `COc1nc(N2CCOCC2)ccc1Nc1ncc(Br)c(Nc2ccc(F)cc2NS(C)(=O)=O)n1` [Example 29, N-(2-((5-bromo-2-((2-methoxy-6-morpholinopyridin-3-yl)amino)pyrimidin-4-yl)amino)-5-fluorophenyl)methanesulfonamide], the GI50 in experiment [1], in experiment [2], in experiment [3] and in experiment [4] was > 10000 nM throughout.

For `COc1nc(N2CCN(C3CC3)CC2)ccc1Nc1ncc(Br)c(Nc2ccc(F)cc2NS(C)(=O)=O)n1` [Example 30, N-(2-((5-bromo-2-((6-(4-cyclopropylpiperazin-1-yl)-2-methoxypyridin-3-yl)amino)pyrimidin-4-yl)amino)-5-fluorophenyl)methanesulfonamide], the GI50 in experiment [1] is 2000 to 10000 nM; in experiment [2], > 10000 nM; in experiment [3], > 10000 nM; in experiment [4], 2000 to 10000 nM.

Consider `COc1nc(N2CCC(N3CCOCC3)CC2)ccc1Nc1ncc(Br)c(Nc2ccc(F)cc2NS(C)(=O)=O)n1` [Example 31, N-(2-((5-bromo-2-((2-methoxy-6-(4-morpholinopiperidin-1-yl)pyridin-3-yl)amino)pyrimidin-4-yl)amino)-5-fluorophenyl)methanesulfonamide], for which the GI50 in experiment [1] fell in the range of 2000 to 10000 nM; in experiment [2], 2000 to 10000 nM; in experiment [3], 2000 to 10000 nM; in experiment [4], 500 to 2000 nM.

Turning to `COc1nc(N2CCC(C)(C)CC2)ccc1Nc1ncc(Br)c(Nc2ccc(F)cc2NS(C)(=O)=O)n1` [Example 32, N-(2-((5-bromo-2-((6-(4,4-dimethylpiperidin-1-yl)-2-methoxypyridin-3-yl)amino)pyrimidin-4-yl)amino)-5-fluorophenyl)methanesulfonamide], the concentration for 50% growth inhibition (GI50) in experiment [1], in experiment [2], in experiment [3] and in experiment [4] was 2000 to 10000 nM in each case.

Turning to `COc1nc(N2CCC(F)(F)CC2)ccc1Nc1ncc(Br)c(Nc2ccc(F)cc2NS(C)(=O)=O)n1` [Example 33, N-(2-((5-Bromo-2-((6-(4,4-difluoropiperidin-1-yl)-2-methoxypyridin-3-yl)amino)pyrimidin-4-yl)amino)-5-fluorophenyl)methanesulfonamide], the GI50 in experiment [1], in experiment [2], in experiment [3] and in experiment [4] was 2000 to 10000 nM in each case.

As to `CN1CCN(C2CCN(c3ccc(Nc4ncc(Cl)c(Nc5ccccc5S(=O)(=O)NC5CC5)n4)cc3F)CC2)CC1` [Example 60, 2-((5-chloro-2-((3-fluoro-4-(4-(4-methylpiperazin-1-yl)piperidin-1-yl)phenyl)amino)pyrimidin-4-yl)amino)-N-cyclopropylbenzenesulfonamide], the GI50 lay within 100 to 500 nM in experiment [2], 100 to 500 nM in experiment [3] and 25 to 100 nM in experiment [4].

Regarding `COc1nc(N2CCC(N3CCN(C)CC3)CC2)ccc1Nc1ncc(Cl)c(Nc2ccccc2S(=O)(=O)NC2CC2)n1` [Example 61], the figures for the GI50 in experiment [2], in experiment [3] and in experiment [4] were 2000 to 10000 nM, 500 to 2000 nM and 2000 to 10000 nM, respectively.

The values above are taken from patent publication US20240228458A1, “PYRIMIDINE DERIVATIVE HAVING PROTEIN KINASE INHIBITORY ACTIVITY, AND THERAPEUTIC PHARMACEUTICAL COMPOSITION COMPRISING SAME” (THERAPEX CO., LTD., priority 2021, published 2024).
